US6313179A, “Treatment of hyperproliferative skin disorders with C18 to C20 aliphatic alcohols” (Avanir Pharmaceuticals, priority 1998, dated 2001)

Tested on: keloid scarring
Experiment: Treatment of keloid scar formation with n-docosanol cream, case report (Example 4)
Format: in vivo, Human
Description: The patient presented with a one year history of progressive bilateral facial keloid scarring. The precise cause of injury is unknown, but appears to have been initiated as a result of work-relatedexposure to some aerosolized irritant at a high rise building construction site. During the time of exposure, the patient was working in an area in which noxious fumes were known to exist, and they were wearing a filtration face mask for protection against inhalation exposure. Since the resulting wounds occurred in a pattern which appeared to outline the edges of the protective face mask, the injury may reflect some type of chemical burn resulting from concentration of aerosolized irritants with perspiration at the edge of the face mask.
During the ensuing year after onset of this process, the patient was seen on several occasions in the dermatology division of a major local hospital and attempts were made to arrest the process by intradermal steroid injections at the affected sites. This treatment approach was ineffective. When the patient was first seen by the inventors, they had extensive and disfiguring bilateral scars on the face and a large ulcerated lesion at the lower end of the process on the right side of the face. There was keloid scarring on both the right and left sides of the face manifested as typical "ropey and cord-like" tissue deposition and depigmentation. The right side of the face was noticeably swollen presumably as a result of the active ulceration process at the lower end of the lesions. The patient complained of pain along both areas of scarring, particularly at the more distal ends of the lesions. They admitted to social withdrawal as a result of embarrassment about their appearance and extreme frustration about the apparent futility of obtaining any help to arrest or reverse the process.
After thoroughly explaining the experimental aspects of the therapeutic regimen, the patient volunteered to enter a study in which cream containing either 15% or 10% n-docosanol as active ingredient was to be applied to the affected areas. These topical cream formulations are described in U.S. Pat. No. 5,534,554, the entire contents of which are incorporated by reference. Initially, applications of cream containing 15% n-docosanol were made three times daily. This cream formulation contained, in addition to 15% n-docosanol, […], 5.0% sucrose cocoate, 8.0% mineral oil NF, 5.0% propylene glycol USP, 2-ethyl-1,3-hexanediol and 58.3% purified water (all weight percent). After one month on this regimen, the patient was changed to cream containing 10% n-docosanol and the application frequency was reduced to two times daily, after showering in the morning and just before bed in the evening. This cream composition contained, in addition to 10% n-docosanol,5.0% sucrose stearates, 8.0% mineral oil NF, 5.0% propylene glycol USP, 2.7% benzyl alcohol NF and 69.3% purified water.

[1] = 15% cream three times daily, within 48 hours
[2] = 15% cream, by the end of the second week, patient perception

In the case of CCCCCCCCCCCCCCCCCCCCCCO [n-docosanol], the “extent of elevation of the keloid scarring” value (15% cream one month, then 10% cream twice daily, three months) is reported as “clear reduction in the extent of elevation of the keloid scarring”, the “pain around the lesions” value (15% cream three times daily, almost immediately after onset of therapy) is reported as “significant diminution in pain” and the “granulation within the ulcerated lesion” value [1] is reported as “onset of granulation”. For the same molecule, the “swelling on the right side of the face” value [1] was “significant reduction in swelling”, the “suppleness of the overlying dermis” value [2] was “greater suppleness of the overlying dermis” and the “tightness and thickness of the keloids” value [2] was “diminution in tightness and thickness of the keloids”. For the same molecule, the “pigmentation in the affected areas” value (15% then 10% cream, one year) was “almost complete return to normal pigmentation”, the “ropey and cord-like elevations” value (15% then 10% cream, one year) was “a flattening of the previously ropey and cord-like elevations” and the scar tissue (15% then 10% cream, one year) was “significant reduction of scar tissue”. The skin pigmentation (15% then 10% cream, three months) was “considerable improvement in skin pigmentation”, the “scar defect at the site of the healed ulcerated lesion” value (15% then 10% cream, three months, compared to right temple line scar) was “much smaller scar defect” and the adverse reactions (during the course of treatment) was “no adverse reactions”. The “keloid formation in a patient (in words)” value (patient for whom other treatments had not been successful) was “significantly reduced hyperproliferative keloid formation”.
